# Source: article PMC12111648, “New Dimethoxyaryl-Sesquiterpene Derivatives with Cytotoxic Activity Against MCF-7 Breast Cancer Cells: From Synthesis to Topoisomerase I/II Inhibition and Cell Death Mechanism Studies” (International Journal of Molecular Sciences, 2025)
# “Also recorded” adds a separate entry of the source.
# Columns and labels:
# Format in all cases: cell-based, human
# MCF-10 cells = assay: MTT cytotoxicity assay on non-tumoral MCF-10 cells; conditions: IC50 ± SD, three experiments in triplicate
# Procedure: (§1) In this study, we wondered whether semi-synthetic compounds have potential antitumoral properties against BC. Therefore, we were interested in investigating the effect of the compounds on the MCF-7 cell line. Firstly, we studied the effect on cell viability using a colorimetric MTT assay, which was performed to quantify the cytotoxic activity; each compound was evaluated at different concentrations (500−100−20−4−0.8−0.16−0.032−0 µM). Daunorubicin was also used as a positive control for comparison with a reference drug. […] Although the MCF-10 cell line provides a useful selectivity model, it may not fully represent the varying sensitivities of different normal cell types within a multicellular organism. The SI value indicates the ratio of toxicity in mammalian host cells to that in a tumoral cell. The data obtained in response to different concentrations of compounds were used to calculate the IC50 and corresponding SI values, as shown in Table 1.
# (§2) The American Type Culture Collection (Rockville, MD, USA) supplied the following experimental cell lines: MCF-7, a human breast cancer cell line, and MCF-10A, a human epithelial breast cell line (ATCC N° CRL-10317). Both cell lines were grown in DMEM-F12 medium containing 10% FCS, 100 U/mL penicillin, 100 μg/mL streptomycin, and 1 mM glutamine. The cells were seeded at a concentration of 100 μL per well at a plating density of 3 × 10^3 cells/well and incubated for 24 h at 37 °C under 5% humidified CO2 to enable attachment. The cells were then treated with varying concentrations of synthesized compounds for […] under the same conditions. The compound stock solution was prepared in DMSO, and the final concentration of DMSO was kept at 0.1%. Control cultures were treated with only 1% ethanol.
# (§3) Cells from the MCF-7 and MCF-10 lines were seeded into 96-well plates at a density of 1 × 10^4 per well. After 24 h, the compounds were added at increasing concentrations (500–100–20-4–0.8–0.16–0.032–0 µM), and the cells were incubated at 37 °C in a humidified 5% CO2/95% air mixture for 48 h. Following incubation, the cells were washed twice with PBS, and 100 μL of 0.5 mg/mL MTT solution was added to each well. After 2 h of incubation, the MTT solution was removed, and the formazan crystals were dissolved in 50 μL of DMSO per well. Absorbance was then measured at 570 nm using a microplate ELISA reader. IC50 values, determined from three independent experiments conducted in triplicate, were calculated using SigmaPlot® software (version 11.0). The selectivity index (SI) of each compound in each cell line was determined by calculating the ratio of the IC50 values for MCF-10 and cancer cell lines. Compounds were considered selective if SI values were equal to or greater than 3 [46].
# MCF-7 cells [1] = assay: MTT cytotoxicity assay on MCF-7 cells; conditions: for IC50: MTT, 48 h incubation, IC50 ± SD, three experiments in triplicate; for Selectivity Index (SI): SI = IC50 on MCF-10 cells/IC50 on MCF-7 cells
# Procedure: as §1, §2, §3
# MCF-7 cells [2] = assay: Intracellular ROS generation (DCFH2-DA, flow cytometry); conditions: MCF-7, compounds at respective IC50, 24 h, versus control
# Procedure: An increase in intracellular ROS may be one of the factors that contribute to the cytotoxicity of certain compounds in cancer cell lines. In fact, ROS and mitochondrial damage are often associated with the induction of cell death. […] DCF fluorescence was then measured by flow cytometry. The difference in the percentage of DCF-positive cells between treated and control cells was used to indicate an increase in intracellular ROS, as shown in Figure 4.
# Reactive oxygen species (ROS) production was measured using flow cytometry. Cells were treated with compounds (each with respective IC50 values) for 24 h, with untreated cells serving as the negative control and cells treated with 1 µM daunorubicin as the positive control. Following the treatment, intracellular ROS levels were visualized after incubation with 2′,7′-dichlorodihydro-fluorescein diacetate (DCFH2-DA) at a final concentration of 10 μM for the last 30 min of the treatment period. After incubation, the cells were washed with PBS, trypsinized, and centrifuged, and the resulting pellet was resuspended in PBS and immediately examined by flow cytometry.
# Figure 4 The effect of the compound’s treatment on intracellular ROS generation. Cells were treated with compounds (respective IC50 values for each compound for 24 h), and intracellular ROS levels were determined in the human cancer cell line MCF-7 by flow cytometry using dichloro-fluorescein diacetate (DCFH2-DA). * p < 0.05 versus control cells (Ctrl). The data represent the means ± S.D. of at least three experiments with triplicate samples.
# MCF-7 cells [3] = assay: Mitochondrial membrane potential (rhodamine 123, flow cytometry); conditions: MCF-7, compounds at respective IC50, 24 h
# Procedure: To determine whether the toxic effects of selected sesquiterpenes (10c, 11c, 12c, 13c, and 14c) are due to the production of ROS and subsequent apoptosis, the mitochondrial membrane potential was measured. With this aim, a protocol using rhodamine 123 staining and flow cytometry was established to study the effect of the selected compounds [40]. The accumulation of rhodamine 123 in mitochondria is associated with the maintenance of the electrochemical gradient in mitochondria. Daunorubicin was used as a positive control (C+). The results are presented as the percentage of cells with increased mitochondrial membrane permeability.
# Rhodamine 123 (Rho123), a positively charged dye that reacts to voltage changes and enters the mitochondria, was utilized to detect modifications in the mitochondrial membrane potential. The cells were exposed to specific compounds (IC50 values for each compound) for 24 h. Control cells that had not been treated were used as negative control, while cells treated with daunorubicin at a concentration of 1 µM served as the positive control. Following this, the cells were incubated with Rho123 (at a concentration of 1 µM) in darkness for an hour at 37 °C. Afterward, the medium was taken out, and the cells were washed with PBS. The cells were then dissociated using trypsin and collected through centrifugation for 10 min at 1500×g. The supernatant was thrown away, and the cell pellets were resuspended in PBS and analyzed using flow cytometry with the FL1 filter. The results are shown as the percentage of Rho123-stained cells.
# Figure 5 The effect of the compound’s treatment on mitochondrial membrane potential. […] The data represent the means ± S.D. of at least three experiments with triplicate samples.
# [4] = test system: caspases-3/7 in MCF-7 cells; assay: Caspase-Glo 3/7 assay; conditions: MCF-7, 50 μM, 24 h, versus control
# Procedure: Since ROS levels were increased in the MCF-7 cancer cell line in response to the compounds, it is important to determine whether this effect is associated with the onset of apoptotic cell death. […] Cells were treated with the selected compounds at 50 μM for 24 h, incubated in situ with the Caspase-Glo 3/7 marker assay, and then analyzed in a luminometer.
# The activity of caspase 3/7 in MCF-7 cells treated with the compounds was determined using a Caspase-Glo-3/7 Assay kit from Promega (UK). This assay is a homogenous and luminescent method that measures the activity of caspase-3 and -7, which are essential for apoptosis. MCF-7 cells (1 × 10^4 cells per well) were seeded in a 96-well plate and incubated overnight. The cells were then treated for 24 h with the compounds (50 µM) and a blank as a control. After treatment, the Caspase-Glo® 3/7 reagent was prepared according to the manufacturer’s instructions. Specifically, 100 μL of the reagent was added to 100 μL of culture medium containing the treated cells in each well, and the mixture was incubated for 1 h at room temperature in the dark. Luminescence was then measured using a luminometer (Berthold Sirius Single Tube Luminometer). The fold change in caspase activity was calculated by expressing the average luminescence of each treatment as a fold change with respect to the average luminescence of the negative control.
# Figure 6 The effect of the compounds on caspases-3/7 activity in cells from the human breast cancer cell line MCF-7. Caspases-3/7 activity was determined in MCF-7 cells following treatment with the compounds (50 μM) for 24 h. The data are reported as the ratio of activity in treated cells vs. the control (1% ethanol), which were arbitrarily assigned a unitary value. * p < 0.05 versus control cells (Ctrl). The data are reported as the mean values ± S.D. of three different experiments with samples in triplicate.
# [5] = Homo sapiens, MCF10, 48 h incubation
compound,measurement,setting,value
"COc1cc(OC)c2c(c1)[C@]1(C)CCC3C(C)(C)CCC[C@]3(C)C1=C2 (stereo partly drawn) [Compound 14a, (6aR,11bS)-8,10-Dimethoxy-4,4,6a,11b-tetramethyl-2,3,4,4a,5,6,6a,11b-octahydro-1H-benzo[a]fluorene]",IC50,MCF-10 cells; [5],52.4 ± 3.5 µM
same,IC50,"MCF-7 cells [1]; Homo sapiens, MCF7",8.4 ± 1.8 µM
same,Selectivity Index (SI),MCF-7 cells [1],6.3
"COc1ccc(OC)c([C@@H](O)[C@H]2C(C)=CCC3C(C)(C)CCC[C@@]32C)c1 (stereo partly drawn) [Compound 10b, (1S)-(2,5-Dimethoxyphenyl)((1S,8aS)-2,5,5,8a-tetramethyl-1,4,4a,5,6,7,8,8a-octahydronaphthalen-1-yl)methanol]",IC50,MCF-10 cells; [5],10.1 ± 3 µM
same,IC50,"MCF-7 cells [1]; Homo sapiens, MCF7",131 ± 26.6 µM
same,Selectivity Index (SI),MCF-7 cells [1],0.1
"COc1cc2c(c(OC)c1)[C@]1(C)CCC3C(C)(C)CCC[C@]3(C)C1=C2 (stereo partly drawn) [Compound 14d, (6aR,11bS)-7,9-Dimethoxy-4,4,6a,11b-tetramethyl-2,3,4,4a,5,6,6a,11b-octahydro-1H-benzo[a]fluorene]",IC50,MCF-10 cells; [5],31.4 ± 4.6 µM
same,IC50,"MCF-7 cells [1]; Homo sapiens, MCF7",120 ± 29.8 µM
same,Selectivity Index (SI),MCF-7 cells [1],0.3
"(4aS,5S)-5-(3,5-Dimethoxybenzyl)-1,1,4a,6-tetramethyl-1,2,3,4,4a,5,8,8a-octahydronaphthalene [Compound 11d]",IC50,MCF-10 cells; 48 h incubation,165 ± 12.5 µM
same,IC50,MCF-7 cells [1],187 ± 9 µM
"COc1ccc(C[C@H]2C(C)=CCC3C(C)(C)CCC[C@@]32C)cc1OC (stereo partly drawn) [Compound 11c, (4aS,5S)-5-(3,4-Dimethoxybenzyl)-1,1,4a,6-tetramethyl-1,2,3,4,4a,5,8,8a-octahydronaphthalenene]",IC50,MCF-10 cells; [5],87.7 ± 17.8 µM
same,intracellular ROS levels (DCF fluorescence),MCF-7 cells [2],significantly increased; also recorded: most effective
same,mitochondrial membrane permeability,MCF-7 cells [3],did not increase
same,IC50,"MCF-7 cells [1]; Homo sapiens, MCF7",13.5 ± 1.8 µM
same,Selectivity Index (SI),MCF-7 cells [1],6.5
same,caspases-3/7 activity,[4],considerably enhanced
"COc1cc(OC)cc([C@@H](O)[C@H]2C(C)=CCC3C(C)(C)CCC[C@@]32C)c1 (stereo partly drawn) [Compound 10d, (1S)-(3,5-Dimethoxyphenyl)((1S,8aS)-2,5,5,8a-tetramethyl-1,4,4a,5,6,7,8,8a-octahydronaphthalen-1-yl)methanol]",IC50,MCF-10 cells; [5],12.3 ± 3.1 µM
same,IC50,"MCF-7 cells [1]; Homo sapiens, MCF7",126 ± 11.5 µM
same,Selectivity Index (SI),MCF-7 cells [1],0.1
"COc1cc(OC)cc(C(=O)[C@H]2C(C)=CCC3C(C)(C)CCC[C@@]32C)c1 (stereo partly drawn) [Compound 12d, (3,5-Dimethoxyphenyl)((1S,8aS)-2,5,5,8a-tetramethyl-1,4,4a,5,6,7,8,8a-octahydronaphthalen-1-yl)methanone]",IC50,MCF-10 cells; [5],107 ± 15.4 µM
same,IC50,"MCF-7 cells [1]; Homo sapiens, MCF7",112 ± 25.4 µM
same,Selectivity Index (SI),MCF-7 cells [1],1.0
"COc1ccc(OC)c(C(=O)[C@H]2C(C)=CCC3C(C)(C)CCC[C@@]32C)c1 (stereo partly drawn) [Compound 12b, (2,5-Dimethoxyphenyl)((1S,8aS)-2,5,5,8a-tetramethyl-1,4,4a,5,6,7,8,8a-octahydronaphthalen-1-yl)methanone]",IC50,MCF-10 cells; [5],72.7 ± 4.3 µM
same,IC50,"MCF-7 cells [1]; Homo sapiens, MCF7",88.1 ± 19.9 µM
same,Selectivity Index (SI),MCF-7 cells [1],0.8
"COc1ccc(OC)c(C[C@H]2C(C)=CCC3C(C)(C)CCC[C@@]32C)c1 (stereo partly drawn) [Compound 11b, (4aS,5S)-5-(2,5-Dimethoxybenzyl)-1,1,4a,6-tetramethyl-1,2,3,4,4a,5,8,8a-octahydronaphthalene]",IC50,MCF-10 cells; [5],54.4 ± 3.5 µM
same,IC50,"MCF-7 cells [1]; Homo sapiens, MCF7",133 ± 14.9 µM
same,Selectivity Index (SI),MCF-7 cells [1],0.4
"COc1ccc(C[C@H]2C(C)=CCC3C(C)(C)CCC[C@@]32C)c(OC)c1 (stereo partly drawn) [Compound 11a, (4aS,5S)-5-(2,4-Dimethoxybenzyl)-1,1,4a,6-tetramethyl-1,2,3,4,4a,5,8,8a-octahydronaphthalene]",IC50,MCF-10 cells; [5],76.7 ± 3 µM
same,IC50,"MCF-7 cells [1]; Homo sapiens, MCF7",75.2 ± 11.3 µM
same,Selectivity Index (SI),MCF-7 cells [1],1.0
"COc1ccc(C(=O)[C@H]2C(C)=CCC3C(C)(C)CCC[C@@]32C)c(OC)c1 (stereo partly drawn) [Compound 12a, (2,4-Dimethoxyphenyl)((1S,8aS)-2,5,5,8a-tetramethyl-1,4,4a,5,6,7,8,8a-octahydronaphthalen-1-yl)methanone]",IC50,MCF-10 cells; [5],45.4 ± 4.8 µM
same,IC50,"MCF-7 cells [1]; Homo sapiens, MCF7",56.2 ± 7.3 µM
same,Selectivity Index (SI),MCF-7 cells [1],0.8
"COc1ccc(/C=C2\C(C)=CCC3C(C)(C)CCC[C@]23C)c(OC)c1 (stereo partly drawn) [Compound 13a, (4aS)-5-((E)-2,4-Dimethoxybenzylidene)-1,1,4a,6-tetramethyl-1,2,3,4,4a,5,8,8a-octahydronaphthalene]",IC50,MCF-10 cells; [5],70.9 ± 15.1 µM
same,IC50,"MCF-7 cells [1]; Homo sapiens, MCF7",48.9 ± 8 µM
same,Selectivity Index (SI),MCF-7 cells [1],1.4
"COc1ccc([C@@H](O)[C@H]2C(C)=CCC3C(C)(C)CCC[C@@]32C)c(OC)c1 (stereo partly drawn) [Compound 10a, (1S)-(2,4-Dimethoxyphenyl)((1S,8aS)-2,5,5,8a-tetramethyl-1,4,4a,5,6,7,8,8a-octahydronaphthalen-1-yl) methanol]",IC50,MCF-10 cells; [5],53.2 ± 10 µM
same,IC50,"MCF-7 cells [1]; Homo sapiens, MCF7",74.2 ± 7 µM
same,Selectivity Index (SI),MCF-7 cells [1],0.7
